From patent US20070219212A1, “Pyranouidole Derivatives and the Use Thereof for the Treatment of Hepatitis C Virus Infection or Disease” (priority 2004, published 2007)
Like-named read-outs stand apart in the source and are kept apart here.

Experiments:
[1] = target: T1, NS5B from the BK strain (genotype 1b) (Hepatitis C virus genotype 1b, UniProt P26663); assay: Hepatitis C polymerase (NS5B, BK strain) inhibition, radioactive filter assay; format: biochemical; details: NS5B BK strain (genotype 1b)
T1 construct: NS5B from the BK strain (genotype 1b) is expressed in E coli as a protein in which the 21 C-terminal amino acids are replaced; made in house; host or cells: E. coli
T1 sequence (P26663 2420-2989): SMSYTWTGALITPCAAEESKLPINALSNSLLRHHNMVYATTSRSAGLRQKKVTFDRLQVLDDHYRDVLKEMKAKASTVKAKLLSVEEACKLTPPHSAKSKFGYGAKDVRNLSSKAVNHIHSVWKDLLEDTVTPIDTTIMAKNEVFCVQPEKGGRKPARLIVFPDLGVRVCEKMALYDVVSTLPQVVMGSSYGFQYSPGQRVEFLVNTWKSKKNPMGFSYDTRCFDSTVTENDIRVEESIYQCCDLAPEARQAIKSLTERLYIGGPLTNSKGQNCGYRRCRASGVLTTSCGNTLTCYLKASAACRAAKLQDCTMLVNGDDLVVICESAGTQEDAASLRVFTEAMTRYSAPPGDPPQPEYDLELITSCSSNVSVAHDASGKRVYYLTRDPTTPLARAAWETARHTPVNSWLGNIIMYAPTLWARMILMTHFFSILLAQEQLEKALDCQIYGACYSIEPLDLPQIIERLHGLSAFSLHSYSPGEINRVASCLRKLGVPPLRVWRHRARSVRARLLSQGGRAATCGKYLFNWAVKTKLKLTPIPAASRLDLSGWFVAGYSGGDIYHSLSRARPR
Source text: (§1) The ability of the compounds of the present invention to inhibit Hepatitis C Polymerase was established by the following experimental procedure:
NS5B from the BK strain (genotype 1b) is expressed in E coli as a protein in which the 21 C-terminal amino acids are replaced with a short linker and a hexahistidine tag ([…]). The purified protein is mixed with radioactive nucleotides and allowed to replicate a heteropolymeric RNA substrate, primed by an endogenous short hairpin, resulting in an approximately 760 nt product. The radioactive product is captured on a filter and quantitated after removal of the unincorporated nucleotides.
(§2) • 0.5M Na Phosphate buffer. Per liter, weigh 134 gr Na2HPO4.7H2O, add water to 900 ml. Adjust pH to 7.0 with phosphoric acid. Top off with water to 1 L. • Dilute nucleotides 1:1000 to 10 μM (GTP and CTP) or 1:100 to 100 μM (ATP and UTP) into RNase free water. Procedure: • (1) Compounds 10 μl at […] in 15% dimethylsulfoxide (DMSO) When starting from 100 μg/ml compound stock in 1% DMSO: Dispense 5 μl 30% DMSO per well Dispense 5 μl compound (100 μg/ml) per well. When starting from 50 μg/ml compound stock in 15% DMSO: Add 10 μl compound per well.
(§3) Add 20 μl enzyme mix into each well of the assay plate. Incubate compound and enzyme at room temperature for 15 minutes • (3) Template mix—prepare ahead
(§4) Spin down a tube of RNA (5 μg/tube stored in 75% ethanol and 0.3 M sodium acetate) in a microcentrifuge for 20 minutes at 4° C. One tube is enough for 1-1.5 plates. Remove as much ethanol from the tube as possible by inverting the tube. Be gentle, pellet RNA may not adhere to the tube. Vacuum dry the RNA. Resuspend the RNA by adding 1 ml of DEPC water, close the cap of the tube tightly. To dissolve RNA, incubate RNA solution on ice for ˜60 minutes and gently vortex. Spin briefly to ensure all RNA solution is down to the bottom of the tube before opening cap. Gently transfer RNA solution into a 5 ml or larger tube. Add another 3 ml of DEPC water (total 4 ml of volume).
(§5) Add the following volumes of reagents
(§6) Add 20 μl template mix per reaction (i.e. 20 ng of pOF per reaction or ˜3 nM) • (4) Incubate reaction at room temperature (22-25° C.) for 2 hours. • (5) Stop reaction by adding 50 μl of 170 mM EDTA.
(§7) Final concentration of EDTA is 85 mM. • (6) Prewet filters of Millipore multiscreen assay plate by adding 200 μl of 0.5 M sodium phosphate buffer, pH 7.0 into each well. Let stand at room temperature for 2-3 minutes. • (7) Place the multiscreen filter plate onto a Millipore Manifold and turn on vacuum to allow buffer to flow through. Turn off vacuum. Transfer 80 μl of the reaction product into each well of the filter plate. Let stand for 2-3 minutes. Turn on vacuum to filter reaction product. • (8) Turn off vacuum. Add 200 μl of 0.5 M sodium phosphate buffer, pH 7.0 into each well to wash filter. Turn on vacuum.
(§8) Repeat step (8) three more times. • (9) Remove polypropylene bottom. Spot dry filter at the bottom with paper towel. Air dry filter plate on a bench for 1 hour. Add 40 μl Super Mix scintillant. Seal top of the plate with a tape. Place plate into a Packard carrier or micro-beta carrier. • (10) Count plate using a Packard Topcount or micro-beta counter. Count (for example using Program 10) for ^33P in Top count or ^33P program in micro-beta.
(§9) See, Ferrari et al. 1999. J. Virology 73:1649-1654: “Characterization of soluble Hepatitis C virus RNA-dependent RNA polymerase expressed in E. coli and Takamizawa et al. 1991” and J. Virology 65:1105-1113: “Structure and characterization of the Hepatitis C virus genome isolated from human carriers,” both references are hereby incorporated by reference.

[2] = target: BB7 RNA-dependent RNA polymerase hepatitis C virus protein (Con1 HCV sequence) (Hepatitis C virus genotype 1b, UniProt Q9WMX2); assay: Hepatitis C polymerase (BB7) inhibition; format: biochemical
Sequence of BB7 RNA-dependent RNA polymerase hepatitis C virus protein (Con1 HCV sequence) (Q9WMX2 2420-3010): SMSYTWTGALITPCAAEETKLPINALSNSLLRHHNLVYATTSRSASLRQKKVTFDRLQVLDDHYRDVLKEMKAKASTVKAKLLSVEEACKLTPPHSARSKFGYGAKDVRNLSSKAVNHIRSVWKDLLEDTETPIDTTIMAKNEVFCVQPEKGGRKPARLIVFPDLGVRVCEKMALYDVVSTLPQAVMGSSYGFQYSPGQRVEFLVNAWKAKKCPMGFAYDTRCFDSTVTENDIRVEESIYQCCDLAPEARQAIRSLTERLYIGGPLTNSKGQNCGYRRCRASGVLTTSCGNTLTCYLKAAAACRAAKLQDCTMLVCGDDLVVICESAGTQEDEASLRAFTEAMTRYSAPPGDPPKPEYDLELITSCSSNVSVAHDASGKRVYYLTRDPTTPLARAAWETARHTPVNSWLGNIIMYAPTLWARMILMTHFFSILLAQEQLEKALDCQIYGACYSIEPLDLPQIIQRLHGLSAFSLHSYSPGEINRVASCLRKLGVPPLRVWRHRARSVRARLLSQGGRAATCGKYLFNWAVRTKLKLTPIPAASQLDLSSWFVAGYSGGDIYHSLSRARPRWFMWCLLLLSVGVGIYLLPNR
Source text: For purposes of this invention, the term “BB7” denotes an RNA-dependent RNA polymerase hepatitis C virus protein sequence which is derived from HCV replicon. A discussion of BB7 and related technology can be found in Blight, K. et al. (2000) Science 290:1972-1974. BB7 can be licensed from Apath, LLC (893 North Warson Road, Saint Louis Mo. 63141, USA). BB7 is also referred to as Con1 HCV sequence and discussions of Con1 can be found in the following references: Lohmann, V. et al. (1999) Science 285:110-113; Pietschmann, T. et al. (2001) J. Virol. […]:1252-1264; Lohmann, V. et al. (2001) J. Virol. 75:1437-1449.
as §1, §2, §3, §4, §5, §6, §7, §8, §9

[3] = BB7 (Con1) NS5B, read-out: BB7 IC50

SMILES | IC50 [1] [nM] | IC50 [2] [nM] | IC50 [2, 3] [nM]
CCCC1(CC(=O)O)OCCc2c1[nH]c1c(C)c(OCc3cccnc3N)cc(C#N)c21 (centres unmarked) [Example 51] | < 500 | < 500 | –
CCCC1(CC(=O)O)OCCc2c1[nH]c1c(C)c(OCc3ccnc(C)c3)cc(C#N)c21 (centres unmarked) [Example 52] | < 500 | < 500 | –
CCC[C@]1(CC(=O)O)OCCc2c1[nH]c1c(C)c(OCc3ccnc(C)c3)cc(C#N)c21 [Example 53] | < 500 | < 500 | –
CCCC1(CC(=O)O)OCCc2c1[nH]c1c(C)c(OCc3ccnc(N)c3)cc(C#N)c21 (centres unmarked) [Example 54] | < 500 | < 500 | –
CCCC1(CC(=O)O)OCCc2c1[nH]c1c(C)c(OCc3cc(C)on3)cc(C#N)c21 (centres unmarked) [Example 56] | < 500 | < 500 | –
CCC[C@@]1(CC(=O)O)OCCc2c1[nH]c1c(C)c(OCc3cc(C)on3)cc(C#N)c21 [Example 57] | > 5000 | 500 to 5000 | –
CCCC1(CC(=O)O)OCCc2c1[nH]c1c(C)c(OCCN3CCCC3)cc(C#N)c21 (centres unmarked) [Example 58] | 500 to 5000 | 500 to 5000 | –
CCCC1(CC(=O)O)OCCc2c1[nH]c1c(C)c(OCc3cccc(N)n3)cc(C#N)c21 (centres unmarked) [Example 59] | < 500 | < 500 | –
CCCC1(CC(=O)O)OCCc2c1[nH]c1c(C)c(OCc3nccs3)cc(C#N)c21 (centres unmarked) [Example 60] | < 500 | < 500 | –
CCCC1(CC(=O)O)OCCc2c1[nH]c1c(C)c(OCc3ccnc(C(=O)O)c3)cc(C#N)c21 (centres unmarked) [Example 61] | < 500 | < 500 | –
CCCC1(CC(=O)O)OCCc2c1[nH]c1c(C)c(OCc3cccnc3C)cc(C#N)c21 (centres unmarked) [Example 62] | < 500 | – | < 500
CCCC1(CC(=O)O)OCCc2c1[nH]c1c(C)c(OCc3cccc(C)n3)cc(C#N)c21 (centres unmarked) [Example 63] | < 500 | – | < 500
CCCC1(CC(=O)O)OCCc2c1[nH]c1c(C)c(OCc3cnccn3)cc(C#N)c21 (centres unmarked) [Example 64] | < 500 | < 500 | –
CCCC1(CC(=O)O)OCCc2c1[nH]c1c(C)c(OCc3ccnc(C(N)=O)c3)cc(C#N)c21 (centres unmarked) [Example 65] | < 500 | < 500 | –
CCCC1(CC(=O)O)OCCc2c1[nH]c1c(C)c(OCc3cc(C)nn3C)cc(C#N)c21 (centres unmarked) [Example 66] | < 500 | < 500 | –
CCCC1(CC(=O)O)OCCc2c1[nH]c1c(C)c(OCc3ccc(N4CCOCC4)nc3)cc(C#N)c21 (centres unmarked) [Example 68] | < 500 | < 500 | –
CCCC1(CC(=O)O)OCCc2c1[nH]c1c(C)c(OCc3ccc(N)nc3)cc(C#N)c21 (centres unmarked) [Example 69] | < 500 | < 500 | –
CCCC1(CC(=O)O)OCCc2c1[nH]c1c(C)c(OCc3ccc(C)nc3)cc(C#N)c21 (centres unmarked) [Example 70] | < 500 | < 500 | –
CCCC1(CC(=O)O)OCCc2c1[nH]c1c(C)c(OCc3cc[n+]([O-])cc3)cc(C#N)c21 (centres unmarked) [Example 71] | < 500 | < 500 | –
CCCC1(CC(=O)O)OCCc2c1[nH]c1c(C)c(OCc3csc(C(C)C)n3)cc(C#N)c21 (centres unmarked) [Example 72] | < 500 | – | < 500
CCCC1(CC(=O)O)OCCc2c1[nH]c1c(C)c(OCc3ccc(C(F)(F)F)nc3)cc(C#N)c21 (centres unmarked) [Example 73] | < 500 | < 500 | –
CCCC1(CC(=O)O)OCCc2c1[nH]c1c(C)c(OCC3CCNCC3)cc(C#N)c21 (centres unmarked) [Example 74] | < 500 | < 500 | –

SMILES | IC50 [1] [nM] | IC50 [2] [nM] | IC50 [2, 3] [nM]
CCCC1(CC(=O)O)OCCc2c1[nH]c1c(C)c(OCc3nn(C)cc3Cl)cc(C#N)c21 (centres unmarked) [Example 75] | < 500 | < 500 | –
CCCC1(CC(=O)O)OCCc2c1[nH]c1c(C)c(OCc3c[nH]cn3)cc(C#N)c21 (centres unmarked) [Example 76] | < 500 | – | < 500
CCCC1(CC(=O)O)OCCc2c1[nH]c1c(C)c(OCc3conc3C)cc(C#N)c21 (centres unmarked) [Example 77] | < 500 | < 500 | –
CCCC1(CC(=O)O)OCCc2c1[nH]c1c(C)c(OCc3cc(C)n(C)n3)cc(C#N)c21 (centres unmarked) [Example 78] | < 500 | < 500 | –
CCCC1(CC(=O)O)OCCc2c1[nH]c1c(C)c(OCc3cc(C)no3)cc(C#N)c21 (centres unmarked) [Example 79] | < 500 | < 500 | –
CCCC1(CC(=O)O)OCCc2c1[nH]c1c(C)c(OCc3c(C)noc3C)cc(C#N)c21 (centres unmarked) [Example 80] | < 500 | < 500 | –
CCCC1(CC(=O)O)OCCc2c1[nH]c1c(C)c(OCc3cc(Br)no3)cc(C#N)c21 (centres unmarked) [Example 81] | < 500 | < 500 | –
CCCC1(CC(=O)O)OCCc2c1[nH]c1c(C)c(OCc3ccn(C)n3)cc(C#N)c21 (centres unmarked) [Example 82] | < 500 | < 500 | –
CCCC1(CC(=O)O)OCCc2c1[nH]c1c(C)c(OCc3cc[nH]n3)cc(C#N)c21 (centres unmarked) [Example 83] | < 500 | < 500 | –
CCCC1(CC(=O)O)OCCc2c1[nH]c1c(C)c(OC(C)c3cc(C)n(C)n3)cc(C#N)c21 (centres unmarked) [Example 84] | < 500 | – | < 500
CCCC1(CC(=O)O)OCCc2c1[nH]c1c(C)c(OCc3csc(C(C)(C)C)n3)cc(C#N)c21 (centres unmarked) [Example 85] | < 500 | < 500 | –
CCCC1(CC(=O)O)OCCc2c1[nH]c1c(C)c(OCc3nc(C)ccc3OC)cc(C#N)c21 (centres unmarked) [Example 86] | < 500 | < 500 | –
CCCC1(CC(=O)O)OCCc2c1[nH]c1c(C)c(OCc3nnc(C(C)(C)C)s3)cc(C#N)c21 (centres unmarked) [Example 87] | < 500 | < 500 | –
CCCC1(CC(=O)O)OCCc2c1[nH]c1c(C)c(OCc3noc(C(C)(C)C)n3)cc(C#N)c21 (centres unmarked) [Example 88] | < 500 | < 500 | –
CCCC1(CC(=O)O)OCCc2c1[nH]c1c(C)c(OCCCc3cc(C)no3)cc(C#N)c21 (centres unmarked) [Example 89] | < 500 | < 500 | –
CCCC1(CC(=O)O)OCCc2c1[nH]c1c(C)c(OCc3ccnc(C(C)=O)c3)cc(C#N)c21 (centres unmarked) [Example 90] | < 500 | < 500 | –
CCCC1(CC(=O)O)OCCc2c1[nH]c1c(C)c(OCc3ccnc(C(C)(C)O)c3)cc(C#N)c21 (centres unmarked) [Example 91] | < 500 | < 500 | –
CCCC1(CC(=O)O)OCCc2c1[nH]c1c(C)c(OCc3ccnc(C(C)O)c3)cc(C#N)c21 (centres unmarked) [Example 92] | < 500 | < 500 | –
CCCC1(CC(=O)O)OCCc2c1[nH]c1c(C)c(OCc3ccnc(NC(C)=O)c3)cc(C#N)c21 (centres unmarked) [Example 93] | < 500 | < 500 | –
CCCC1(CC(=O)O)OCCc2c1[nH]c1c(C)c(OCc3ccnc(COC)c3)cc(C#N)c21 (centres unmarked) [Example 94] | < 500 | – | < 500
CCCC1(CC(=O)O)OCCc2c1[nH]c1c(C)c(OCc3ccnc(C(C)=NOC)c3)cc(C#N)c21 (centres unmarked) [Example 95] | < 500 | < 500 | –
